A short description of this assay: 14-day study in high-fat-diet fed C57BL/6J mice. It counts as in vivo. To be noted: 30 mg/kg daily oral, 14 days. From the text: A 14-day study was used to evaluate the effect of Mutamba EtOH extract fraction 84/F6 on body weight gain in high-fat-diet (HFD) fed C57BL/6J mice. Male C57BL/6J mice at the age of 6 weeks were purchased from Charles River Laboratories (Wilmington, MA) and acclimated for one week. On the day 0 (treatment start), body weights were taken for all the mice and randomly assigned to a group of four treatment groups as follows: (1) 8 mice/group received positive control=Alli; (2) 15 mice/group received Mutamba fraction 84/F6; (3) 8 mice/group received vehicle only (0.5% carboxymethyl cellulose) given to HFD control; and (4) 8 mice/group received vehicle only given to untreated normal diet control. Mice received a daily oral dose of Alli at 30 mg/kg and Mutamba 84/F6 at 1 g/kg for 14 days. Once mice received their first respective dose, they were provided ad libitum a 60% kcal high fat-diet, except for the normal diet group. Body weights were taken daily for the duration of study except on weekends. […] Blood glucose levels were measured using the Contour blood glucose monitoring kit (Bayer Health Care). Total triglyceride and cholesterol levels were measured using the CardioChek Analyzer with PTS panel test strips (Polymer Technology System, Inc, Indianapolis, IN).

The structures appear in SMILES notation.

For `CCCCCCCCCCC[C@@H](C[C@@H]1OC(=O)[C@H]1CCCCCC)OC(=O)[C@H](CC(C)C)NC=O` [ORI, orlistat], the “body weight gain vs vehicle treated HFD group” value is listed as “decrease in weight gain only on day 14 of treatment” and the “fasting blood glucose, total cholesterol, triglyceride vs vehicle treated HFD group” value was “statistically significant higher levels of fasting triglyceride”.

These data come from patent publication US20240024403A1, “Compositions and Methods for Managing Weight” (Unigen, Inc., priority 2012, published 2024).
